Measurements published in the NIST ThermoML archive (doi:10.1016/j.jct.2018.01.021).

Experiment: mn = molality of the nth substance listed, in mol/kg
Conditions: 100 kPa, Liquid; for speed of sound: Frequency=3 MHz, Single path-length method; for mass density: Vibrating tube method

O [water] + [Cl-].[Na+]
Conditions	speed of sound [m/s]
298.15 K, m2 = 0	1497.7

O=C[C@H](O)[C@@H](O)[C@H](O)[C@H](O)CO [D-glucose] + O
298.15 K
Conditions	mass density [kg/m3]	speed of sound [m/s]
m1 = 0.153	–	1507.3
m1 = 1.13	1064.98	1565.3

C[N+](C)(C)[O-] [trimethylamine oxide] + O
m1 = 1.08
Conditions	mass density [kg/m3]	speed of sound [m/s]
293.15 K	1000.9	1564.8
298.15 K	999.7	1575.7
303.15 K	998.26	1584.2
308.15 K	996.53	1589.4
313.15 K	994.81	1595.5

[Cl-].[Na+] [sodium chloride] + O
298.15 K
Conditions	mass density [kg/m3]	speed of sound [m/s]
m1 = 0.151	1003.43	1507.5
m1 = 1.021	1037.99	1560.5

O [water] + C[N+](C)(C)[O-]
m2 = 0
Conditions	speed of sound [m/s]
298.15 K	1497.7
308.15 K	1520.7

O [water] + O=C[C@H](O)[C@@H](O)[C@H](O)[C@H](O)CO
Conditions	speed of sound [m/s]
298.15 K, m2 = 0	1497.7

O [water] + C[N+](C)(C)C[C@H](O)CC(=O)[O-]
m2 = 0
Conditions	speed of sound [m/s]
298.15 K	1497.7
308.15 K	1520.7

C[N+](C)(C)C[C@H](O)CC(=O)[O-] [(R)-3-hydroxy-4-(trimethylammonio)butanoate] + O
Conditions	mass density [kg/m3]	speed of sound [m/s]
293.15 K, m1 = 0.0937	1001.09	1492.4
293.15 K, m1 = 0.1233	1001.98	1495.2
293.15 K, m1 = 0.1554	1002.94	1498.3
293.15 K, m1 = 0.1924	1004.04	1501.8
293.15 K, m1 = 0.2249	1004.99	1504.9
293.15 K, m1 = 0.2574	1005.94	1507.9
293.15 K, m1 = 0.276	1006.48	1509.7
293.15 K, m1 = 0.3064	1007.35	1512.5
298.15 K, m1 = 0.0497	998.57	1502.3
298.15 K, m1 = 0.0994	1000.06	1506.9
298.15 K, m1 = 0.1214	1000.71	1508.9
298.15 K, m1 = 0.1509	1001.58	1511.6
298.15 K, m1 = 0.2007	1003.03	1516.1
298.15 K, m1 = 0.2203	1003.6	1517.8
298.15 K, m1 = 0.2572	1004.66	1521.2
298.15 K, m1 = 0.3012	1005.91	1525.1
303.15 K, m1 = 0.0477	997.1	1514.3
303.15 K, m1 = 0.1029	998.75	1519.2
303.15 K, m1 = 0.1227	999.33	1521
303.15 K, m1 = 0.1531	1000.21	1523.6
303.15 K, m1 = 0.2046	1001.71	1528.1
303.15 K, m1 = 0.2174	1002.07	1529.2
303.15 K, m1 = 0.255	1003.14	1532.4
303.15 K, m1 = 0.3041	1004.51	1536.7
308.15 K, m1 = 0.0512	995.58	1525.2
308.15 K, m1 = 0.0938	996.84	1528.8
308.15 K, m1 = 0.1229	997.69	1531.2
308.15 K, m1 = 0.1447	998.32	1533.1
308.15 K, m1 = 0.1952	999.78	1537.3
308.15 K, m1 = 0.2238	1000.59	1539.7
308.15 K, m1 = 0.2282	1000.71	1540.1
308.15 K, m1 = 0.304	1002.84	1546.4
313.15 K, m1 = 0.0519	993.75	1534.1
313.15 K, m1 = 0.1012	995.21	1538.2
313.15 K, m1 = 0.1204	995.77	1539.7
313.15 K, m1 = 0.1428	996.42	1541.5
313.15 K, m1 = 0.1922	997.84	1545.5
313.15 K, m1 = 0.2107	998.36	1547
313.15 K, m1 = 0.2436	999.29	1549.7
313.15 K, m1 = 0.3053	1001	1554.7
